This experiment deals with E. coli. Put plainly: E. coli pneumonia in mice: gentamicin with or without USMB, cfu in lung homogenates. The class given is in vivo, C57BL/6 mice. The method, then:
To establish whether USMB enhances antibiotic delivery to the injured lung, gentamicin (1.5 mg/kg) was administered to mice by intraperitoneal injection 6 hours after infection with E. coli to determine whether USMB conferred any additional benefit to treatment with antibiotics or microbubbles alone. This relatively low dose of gentamicin was chosen as it is relatively slow and achieves incomplete clearance of lung pathogens and thus allows any benefit of USMB to become apparent. In humans, high doses of gentamicin are known to cause nephro- and ototoxicity, making it contraindicated for human use at high doses.
C57BL/6 mice were infected intratracheally with 1×10^7 colony forming units (cfu) of E. coli and received 1.5 mg/kg of gentamicin by intraperitoneal injection 6 hours later. Thirty minutes later, the mice were then injected intravenously with 1×10^9 microbubbles (Definity™) by tail vein. (Definity™ is an approved microbubble preparation that is used for diagnostic imaging in intensive care unit patients.) This was followed by thoracic ultrasound administration for five minutes. The ultrasound treatment conditions were the same as those used in Example 1. Eighteen hours later, mice were euthanized by cervical dislocation and lungs were homogenized for cfu. Lung homogenates were plated on agar to measure bacterial growth. Each experiment was repeated twice with 3 mice per group. Control mice received microbubbles and antibiotic without ultrasound (MB+ antibiotics) or antibiotics alone (PBS and antibiotics). Other control mice received no antibiotics. […] Data are mean plus SEM (SD if <3 mice) with each dot representing a separate animal. Note the >1 log-fold reduction in cfu in the mice receiving USMB with antibiotics (left-most group) compared to microbubbles/antibiotics alone. An ELISA performed on lung homogenates and plasma measures gentamicin levels.

Some results are limits rather than exact numbers.

For gentamicin, where the note is “gentamicin 1.5 mg/kg i.p. plus USMB vs microbubbles/antibiotics alone, 18 hours later”, the “reduction in cfu in lung homogenates” value was more than 1 log-fold. For the same substance, the “reduction in bacterial growth caused by USMB” value (gentamicin 1.5 mg/kg i.p. plus USMB, both replicates) turned out to be 10 fold. Also, under “gentamicin alone, 1.5 mg/kg i.p.”, the “bacterial colony forming units (cfu)” value is on record as “reduction”. Also, for the setting “microbubbles and antibiotics without ultrasound”, the “benefit over antibiotics alone” value is given as “no benefit”.

For the origin of these results see patent US20200001120A1, “APPARATUS, METHOD, AND USE FOR ULTRASOUND MEDIATED MICROBUBBLE DELIVERY OF PHARMACEUTICAL COMPOSITIONS” (priority 2017, published 2020).
